Where a SMILES comes first, the peptide text is derived from it. [ ]: non-standard residue; d: D form. The star is where a group is joined. NHCH2CH2OH = OCCN*; For = O=C*
Columns and labels:
[1] = H+/Na+ transport assay of bead-derived peptides (one-point); format: biochemical; set-up: key: relative activity; mean of two control wells = 1.00; settings: bead-derived peptide solution, EYPC/EYPG LUVs;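 also: relative to parent gramicidin A activity set to 1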
Outline: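 H+/Na+ transport is monitored through pyranine fluorescence in freshly extruded LUVs after a 30-min room-temperature vortex with each library peptide at a single concentration. Signals are normalized to detergent (Triton X-100) and untreated controls.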

[2] = tested on: P388 mouse leukemia cells; settings: 92 h
Outline: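 First, library peptide stocks are diluted 250-fold in RPMI1640 with 10% heat-inactivated FBS. Next, they are mixed with P388 cells to give 1 × 10^4 cells/mL and incubated 92 h at 37 °C, 5% CO2. Finally, viability (%) is scored by WST-1 absorbance at 415 nm.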

[3] = tested on: Streptococcus pyogenes SSI-9; experiment: Antibacterial activity assay of bead-derived peptides (three concentrations); format: cell-based; set-up: key: +++: inhibition by the 640-fold diluted peptide solution; ++: inhibition by the 160-fold diluted solution; +: inhibition by the 40-fold diluted solution; -: no inhibition; settings: S. pyogenes, bead-derived peptide solution, three concentrations
Outline: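 Three stock dilutions per peptide (none, 4-fold, 16-fold in DMSO) are screened in 96-well format. The medium is blood-supplemented cation-adjusted MHB, inoculated with 2 × 10^5 CFU S. pyogenes SSI-9. Growth is read as cell precipitation at 18 h, 37 °C.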

Row | SMILES | H+/Na+ transport activity normalized against the value of 1 (1.00) [1] | cell viability/% [2] | antibacterial activity [3]
1 | CNC(=O)C[C@@H](NC(=O)[C@H](Cc1c[nH]c2ccccc12)NC(=O)[C@@H](CC(C)C)NC(=O)[C@H](Cc1c[nH]c2ccccc12)NC(=O)[C@H](NC(=O)[C@H](Cc1c[nH]c2ccccc12)NC(=O)[C@@H](CC(C)C)NC(=O)[C@@H](NC(=O)[C@H](NC(=O)[C@H](C)NC(=O)[C@H](NC(=O)[C@H](C)NC(=O)CNC(=O)[C@@H](NC=O)C(C)C)C(C)C)C(C)C)C(C)C)C(C)C)C(=O)N[C@@H](Cc1c[nH]c2ccccc12)C(=O)NCCO [compound 8400] (For-VGA[dV]A[dV]V[dL]W[dV]W[dL]W[dD](NHMe)W-NHCH2CH2OH) | 1.01 | 34.4% | -
2 | CNC(=O)C[C@@H](NC(=O)[C@@H](NC(=O)[C@H](NC(=O)[C@H](C)NC(=O)[C@@H](CC(C)C)NC(=O)[C@H](C)NC(=O)CNC(=O)[C@@H](NC=O)C(C)C)C(C)C)C(C)C)C(=O)N[C@@H](Cc1c[nH]c2ccccc12)C(=O)N[C@@H](C(=O)N[C@@H](Cc1c[nH]c2ccccc12)C(=O)N[C@H](CC(C)C)C(=O)N[C@@H](Cc1c[nH]c2ccccc12)C(=O)N[C@H](CC(C)C)C(=O)N[C@@H](Cc1c[nH]c2ccccc12)C(=O)NCCO)C(C)C [compound 7808] (For-VGA[dL]A[dV]V[dD](NHMe)W[dV]W[dL]W[dL]W-NHCH2CH2OH) | 1.21 | 100.0% | -
3 | CC(C)C[C@@H](NC(=O)[C@H](C)NC(=O)CNC(=O)[C@@H](NC=O)C(C)C)C(=O)N[C@@H](C)C(=O)N[C@@H](C(=O)N[C@H](C(=O)N[C@H](CC(C)C)C(=O)N[C@@H](Cc1c[nH]c2ccccc12)C(=O)N[C@H](CC(C)C)C(=O)N[C@@H](Cc1c[nH]c2ccccc12)C(=O)N[C@@H](C(=O)N[C@@H](Cc1c[nH]c2ccccc12)C(=O)N[C@H](CC(C)C)C(=O)N[C@@H](Cc1c[nH]c2ccccc12)C(=O)NCCO)[C@H](C)O)C(C)C)C(C)C [compound 4128] (For-VGA[dL]A[dV]V[dL]W[dL]W[dT]W[dL]W-NHCH2CH2OH) | 1.03 | 100.0% | +
4 | CC(C)C[C@@H](NC(=O)[C@H](C)NC(=O)CNC(=O)[C@@H](NC=O)C(C)C)C(=O)N[C@@H](C)C(=O)N[C@H](CC(C)C)C(=O)N[C@H](C(=O)N[C@@H](C(=O)N[C@@H](Cc1c[nH]c2ccccc12)C(=O)N[C@@H](C(=O)N[C@@H](Cc1c[nH]c2ccccc12)C(=O)N[C@@H](C(=O)N[C@@H](Cc1c[nH]c2ccccc12)C(=O)N[C@@H](C(=O)N[C@@H](Cc1c[nH]c2ccccc12)C(=O)NCCO)C(C)C)C(C)C)C(C)C)C(C)C)C(C)C [compound 10536] (For-VGA[dL]A[dL]V[dV]W[dV]W[dV]W[dV]W-NHCH2CH2OH) | 1.21 | 100.0% | +
5 | CC(C)C[C@@H](NC(=O)[C@H](Cc1c[nH]c2ccccc12)NC(=O)[C@H](NC(=O)[C@H](Cc1c[nH]c2ccccc12)NC(=O)[C@H](NC(=O)[C@H](Cc1c[nH]c2ccccc12)NC(=O)[C@H](NC(=O)[C@@H](NC(=O)[C@H](NC(=O)[C@H](C)NC(=O)[C@H](NC(=O)[C@H](C)NC(=O)CNC(=O)[C@@H](NC=O)C(C)C)C(C)C)[C@H](C)O)C(C)C)C(C)C)C(C)C)C(C)C)C(=O)N[C@@H](Cc1c[nH]c2ccccc12)C(=O)NCCO [compound 5164] (For-VGA[dV]A[dT]V[dV]W[dV]W[dV]W[dL]W-NHCH2CH2OH) | 1.19 | 100.0% | -
6 | CC(C)C[C@@H](NC(=O)[C@H](C)NC(=O)CNC(=O)[C@@H](NC=O)C(C)C)C(=O)N[C@@H](C)C(=O)N[C@@H](C(=O)N[C@H](C(=O)N[C@@H](C(=O)N[C@@H](Cc1c[nH]c2ccccc12)C(=O)N[C@@H](C(=O)N[C@@H](Cc1c[nH]c2ccccc12)C(=O)N[C@H](CC(C)C)C(=O)N[C@@H](Cc1c[nH]c2ccccc12)C(=O)N[C@@H](C(=O)N[C@@H](Cc1c[nH]c2ccccc12)C(=O)NCCO)C(C)C)C(C)C)C(C)C)C(C)C)C(C)C [compound 11438] (For-VGA[dL]A[dV]V[dV]W[dV]W[dL]W[dV]W-NHCH2CH2OH) | 1.18 | 100.0% | ++
7 | CC(C)C[C@@H](NC(=O)[C@H](C)NC(=O)CNC(=O)[C@@H](NC=O)C(C)C)C(=O)N[C@@H](C)C(=O)N[C@H](CC(C)C)C(=O)N[C@H](C(=O)N[C@@H](C(=O)N[C@@H](Cc1c[nH]c2ccccc12)C(=O)N[C@H](CC(C)C)C(=O)N[C@@H](Cc1c[nH]c2ccccc12)C(=O)N[C@H](CC(C)C)C(=O)N[C@@H](Cc1c[nH]c2ccccc12)C(=O)N[C@@H](C(=O)N[C@@H](Cc1c[nH]c2ccccc12)C(=O)NCCO)C(C)C)[C@H](C)O)C(C)C [compound 4690] (For-VGA[dL]A[dL]V[dT]W[dL]W[dL]W[dV]W-NHCH2CH2OH) | 1.01 | 100.0% | +
8 | CC(C)C[C@@H](NC(=O)[C@H](C)NC(=O)CNC(=O)[C@@H](NC=O)C(C)C)C(=O)N[C@@H](C)C(=O)N[C@@H](C(=O)N[C@H](C(=O)N[C@H](CC(C)C)C(=O)N[C@@H](Cc1c[nH]c2ccccc12)C(=O)N[C@@H](C(=O)N[C@@H](Cc1c[nH]c2ccccc12)C(=O)N[C@@H](C(=O)N[C@@H](Cc1c[nH]c2ccccc12)C(=O)N[C@@H](C(=O)N[C@@H](Cc1c[nH]c2ccccc12)C(=O)NCCO)C(C)C)C(C)C)C(C)C)C(C)C)C(C)C [compound 8796] (For-VGA[dL]A[dV]V[dL]W[dV]W[dV]W[dV]W-NHCH2CH2OH) | 1.15 | 74.1% | +
9 | CC(C)C[C@@H](NC(=O)[C@@H](NC(=O)[C@H](NC(=O)[C@H](C)NC(=O)[C@H](NC(=O)[C@H](C)NC(=O)CNC(=O)[C@@H](NC=O)C(C)C)[C@H](C)O)C(C)C)C(C)C)C(=O)N[C@@H](Cc1c[nH]c2ccccc12)C(=O)N[C@@H](C(=O)N[C@@H](Cc1c[nH]c2ccccc12)C(=O)N[C@@H](C(=O)N[C@@H](Cc1c[nH]c2ccccc12)C(=O)N[C@@H](C(=O)N[C@@H](Cc1c[nH]c2ccccc12)C(=O)NCCO)C(C)C)C(C)C)C(C)C [compound 9799] (For-VGA[dT]A[dV]V[dL]W[dV]W[dV]W[dV]W-NHCH2CH2OH) | 1.26 | 100.0% | -
10 | CC(C)C[C@@H](NC(=O)[C@H](C)NC(=O)CNC(=O)[C@@H](NC=O)C(C)C)C(=O)N[C@@H](C)C(=O)N[C@H](CC(C)C)C(=O)N[C@H](C(=O)N[C@@H](C(=O)N[C@@H](Cc1c[nH]c2ccccc12)C(=O)N[C@@H](C(=O)N[C@@H](Cc1c[nH]c2ccccc12)C(=O)N[C@@H](C(=O)N[C@@H](Cc1c[nH]c2ccccc12)C(=O)N[C@@H](C(=O)N[C@@H](Cc1c[nH]c2ccccc12)C(=O)NCCO)[C@H](C)O)C(C)C)C(C)C)C(C)C)C(C)C [compound 9735] (For-VGA[dL]A[dL]V[dV]W[dV]W[dV]W[dT]W-NHCH2CH2OH) | 1.18 | 100.0% | -
11 | CNC(=O)C[C@@H](NC(=O)[C@@H](NC(=O)[C@H](NC(=O)[C@H](C)NC(=O)[C@H](NC(=O)[C@H](C)NC(=O)CNC(=O)[C@@H](NC=O)C(C)C)C(C)C)C(C)C)C(C)C)C(=O)N[C@@H](Cc1c[nH]c2ccccc12)C(=O)N[C@H](CC(C)C)C(=O)N[C@@H](Cc1c[nH]c2ccccc12)C(=O)N[C@H](CC(C)C)C(=O)N[C@@H](Cc1c[nH]c2ccccc12)C(=O)N[C@@H](C(=O)N[C@@H](Cc1c[nH]c2ccccc12)C(=O)NCCO)C(C)C [compound 231] (For-VGA[dV]A[dV]V[dD](NHMe)W[dL]W[dL]W[dV]W-NHCH2CH2OH) | 1.14 | 100.0% | -
12 | CC(C)C[C@@H](NC(=O)[C@H](Cc1c[nH]c2ccccc12)NC(=O)[C@@H](CC(C)C)NC(=O)[C@H](Cc1c[nH]c2ccccc12)NC(=O)[C@H](NC(=O)[C@H](Cc1c[nH]c2ccccc12)NC(=O)[C@@H](CC(C)C)NC(=O)[C@@H](NC(=O)[C@H](NC(=O)[C@H](C)NC(=O)[C@H](NC(=O)[C@H](C)NC(=O)CNC(=O)[C@@H](NC=O)C(C)C)C(C)C)C(C)C)C(C)C)C(C)C)C(=O)N[C@@H](Cc1c[nH]c2ccccc12)C(=O)NCCO [compound 10661] (For-VGA[dV]A[dV]V[dL]W[dV]W[dL]W[dL]W-NHCH2CH2OH) | 1.03 | 39.9% | +
13 | CNC(=O)C[C@@H](NC(=O)[C@@H](NC(=O)[C@@H](CC(C)C)NC(=O)[C@H](C)NC(=O)[C@@H](CC(C)C)NC(=O)[C@H](C)NC(=O)CNC(=O)[C@@H](NC=O)C(C)C)C(C)C)C(=O)N[C@@H](Cc1c[nH]c2ccccc12)C(=O)N[C@@H](C(=O)N[C@@H](Cc1c[nH]c2ccccc12)C(=O)N[C@@H](C(=O)N[C@@H](Cc1c[nH]c2ccccc12)C(=O)N[C@H](CC(C)C)C(=O)N[C@@H](Cc1c[nH]c2ccccc12)C(=O)NCCO)C(C)C)C(C)C [compound 11601] (For-VGA[dL]A[dL]V[dD](NHMe)W[dV]W[dV]W[dL]W-NHCH2CH2OH) | 1.23 | 98.9% | -
